Results taken from patent US10544103B2, “5-HT2 antagonists” (ANAMAR AB, priority 2015, dated 2020).

Biological target: T1, 5-HT2B receptor (Homo sapiens, UniProt P41595)
T1 construct: host or cells: CHO-K1
Assay: 5-HT2B receptor binding, 3H-LSD ligand displacement assay
Conditions: for inhibition at 0.001 µM: 0.001 uM compound; for inhibition at 0.01 µM: 0.01 uM compound; for inhibition at 0.1 µM: 0.1 uM compound; for inhibition at 1 µM: 1 uM compound
Procedure: 5-HT2B receptor binding (performed at Eurofins Panlabs Taiwan, Ltd.) to human receptor protein expressed in CHO-K1 cells was determined in a ligand displacement assay using ^3H-lysergic acid diethylamide (LSD) as radioligand and ketanserine as a standard reference compound. Data is presented as % displacement of radioligand at indicated compound concentrations, see Table 1 and Table 2.

T1 sequence (P41595 whole entry): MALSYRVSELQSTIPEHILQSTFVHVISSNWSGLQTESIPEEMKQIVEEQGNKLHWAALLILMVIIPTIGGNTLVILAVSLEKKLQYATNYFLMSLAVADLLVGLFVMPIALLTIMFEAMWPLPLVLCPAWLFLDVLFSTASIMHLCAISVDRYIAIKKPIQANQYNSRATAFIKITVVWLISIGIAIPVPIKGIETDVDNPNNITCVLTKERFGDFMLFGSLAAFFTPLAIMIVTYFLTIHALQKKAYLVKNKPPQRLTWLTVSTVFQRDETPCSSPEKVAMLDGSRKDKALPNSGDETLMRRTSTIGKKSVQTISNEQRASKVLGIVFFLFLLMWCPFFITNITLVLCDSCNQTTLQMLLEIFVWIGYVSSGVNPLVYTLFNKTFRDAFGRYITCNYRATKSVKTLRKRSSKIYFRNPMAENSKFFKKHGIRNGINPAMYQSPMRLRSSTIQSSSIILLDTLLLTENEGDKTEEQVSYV

SMILES	inhibition at 0.001 µM	inhibition at 0.01 µM	inhibition at 0.1 µM	inhibition at 1 µM
CC1CN(C(=N)NCCc2ccccc2)N=C1c1ccccc1O (centres unmarked) [Example 65, 3-(2-hydroxyphenyl)-4-methyl-N-phenethyl-4,5-dihydro-1H-pyrazole-1-carboximidamide]	48%	89%	–	–
COc1ccc(C2=NN(C(=N)N)CC2C)c(OC)c1 (centres unmarked) [Example 66, 3-(2,4-Dimethoxyphenyl)-4-methyl-4,5-dihydro-1H-pyrazole-1-carboximidamide]	–	5%	12%	41%
CC1CN(C(=N)N)N=C1c1ccc(O)cc1O (centres unmarked) [Example 67, 3-(2,4-Dihydroxyphenyl)-4-methyl-4,5-dihydro-1H-pyrazole-1-carboximidamide]	–	9%	31%	72%
COc1cc(C(F)(F)F)ccc1C1=NN(C(=N)N)CC1C (centres unmarked) [Example 68, 3-(2-Methoxy-4-(trifluoromethyl)phenyl)-4-methyl-4,5-dihydro-1H-pyrazole-1-carboximidamide]	–	–	32%	86%
CC1CN(C(=N)N)N=C1c1ccc(C(F)(F)F)cc1O (centres unmarked) [Example 69, 3-(2-Hydroxy-4-(trifluoromethyl)phenyl)-4-methyl-4,5-dihydro-1H-pyrazole-1-carboximidamide]	–	–	70%	97%
CC1CN(C(=N)N)N=C1c1c[nH]c2ccccc12 (centres unmarked) [Example 70, 3-(1H-Indol-3-yl)-4-methyl-4,5-dihydro-1H-pyrazole-1-carboximidamide]	–	38%	84%	98%
CC1CN(C(=N)N)N=C1c1ccnc2ccccc12 (centres unmarked) [Example 71, 4-Methyl-3-(quinolin-4-yl)-4,5-dihydro-1H-pyrazole-1-carboximidamide]	–	11%	20%	43%
CC1CN(C(=N)NCc2ccccc2)N=C1c1cccc(Cl)c1O (centres unmarked) [Example 75, N-Benzyl-3-(3-chloro-2-hydroxyphenyl)-4-methyl-4,5-dihydro-1H-pyrazole-1-carboximidamide]	76%	97%	–	–
CCCCNC(=N)N1CC(C)C(c2cccc(Cl)c2OC)=N1 (centres unmarked) [Example 78, N-butyl-3-(3-chloro-2-methoxyphenyl)-4-methyl-4,5-dihydro-1H-pyrazole-1-carboximidamide]	49%	85%	98%	–
CCCCNC(=N)N1CC(C)C(c2cccc(Cl)c2O)=N1 (centres unmarked) [Example 79, N-Butyl-3-(3-chloro-2-hydroxyphenyl)-4-methyl-4,5-dihydro-1H-pyrazole-1-carboximidamide]	79%	91%	94%	–
CCCCCCNC(=N)N1CC(C)C(c2cccc(Cl)c2OC)=N1 (centres unmarked) [Example 80, 3-(3-Chloro-2-methoxyphenyl)-N-hexyl-4-methyl-4,5-dihydro-1H-pyrazole-1-carboximidamide]	13%	68%	97%	–
CCCCCCNC(=N)N1CC(C)C(c2cccc(Cl)c2O)=N1 (centres unmarked) [Example 81, 3-(3-Chloro-2-hydroxyphenyl)-N-hexyl-4-methyl-4,5-dihydro-1H-pyrazole-1-carboximidamide]	62%	96%	97%	–
CCCCCCCCCCCCNC(=N)N1CC(C)C(c2cccc(Cl)c2OC)=N1 (centres unmarked) [Example 82, 3-(3-Chloro-2-methoxyphenyl)-N-dodecyl-4-methyl-4,5-dihydro-1H-pyrazole-1-carboximidamide]	0%	-4%	51%	–
CCCCCCCCCCCCNC(=N)N1CC(C)C(c2cccc(Cl)c2O)=N1 (centres unmarked) [Example 83, 3-(3-Chloro-2-hydroxyphenyl)-N-dodecyl-4-methyl-4,5-dihydro-1H-pyrazole-1-carboximidamide]	3%	23%	82%	–
COc1c(Cl)cccc1C1=NN(C(=N)NC2CCCCC2)CC1C (centres unmarked) [Example 84, 3-(3-Chloro-2-methoxyphenyl)-N-cyclohexyl-4-methyl-4,5-dihydro-1H-pyrazole-1-carboximidamide]	11%	63%	94%	–
CC1CN(C(=N)NC2CCCCC2)N=C1c1cccc(Cl)c1O (centres unmarked) [Example 85, 3-(3-Chloro-2-hydroxyphenyl)-N-cyclohexyl-4-methyl-4,5-dihydro-1H-pyrazole-1-carboximidamide]	47%	93%	101%	–
COc1c(Cl)cccc1C1=NN(C(=N)NC2CC2)CC1C (centres unmarked) [Example 86, 3-(3-Chloro-2-methoxyphenyl)-N-cyclopropyl-4-methyl-4,5-dihydro-1H-pyrazole-1-carboximidamide]	-14%	29%	83%	–

SMILES	inhibition at 0.001 µM	inhibition at 0.01 µM	inhibition at 0.1 µM	inhibition at 1 µM
CC1CN(C(=N)NC2CC2)N=C1c1cccc(Cl)c1O (centres unmarked) [Example 87, 3-(3-Chloro-2-hydroxyphenyl)-N-cyclopropyl-4-methyl-4,5-dihydro-1H-pyrazole-1-carboximidamide]	24%	84%	100%	–
COc1c(Cl)cccc1C1=NN(C(=N)Nc2ccccc2)CC1C (centres unmarked) [Example 88, 3-(3-Chloro-2-methoxyphenyl)-4-methyl-N-phenyl-4,5-dihydro-1H-pyrazole-1-carboximidamide]	53%	92%	97%	–
CC1CN(C(=N)Nc2ccccc2)N=C1c1cccc(Cl)c1O (centres unmarked) [Example 89, 3-(3-Chloro-2-hydroxyphenyl)-4-methyl-N-phenyl-4,5-dihydro-1H-pyrazole-1-carboximidamide]	88%	100%	97%	–
COc1c(Cl)cccc1C1=NN(C(=N)NC#N)CC1C (centres unmarked) [Example 90, 3-(3-Chloro-2-methoxyphenyl)-N-cyano-4-methyl-4,5-dihydro-1H-pyrazole-1-carboximidamide]	3%	1%	-2%	–
CC1CN(C(=N)NC#N)N=C1c1cccc(Cl)c1O (centres unmarked) [Example 91, 3-(3-Chloro-2-hydroxyphenyl)-N-cyano-4-methyl-4,5-dihydro-1H-pyrazole-1-carboximidamide]	-15%	27%	74%	–
COc1ccccc1C1=NN(C(=N)NCC(F)(F)C(F)(F)C(F)(F)F)CC1C (centres unmarked) [Example 92, N-(2,2,3,3,4,4,4-Heptafluorobutyl)-3-(2-methoxyphenyl)-4-methyl-4,5-dihydro-1H-pyrazole-1-carboximidamide]	-3%	22%	78%	–
CC1CN(C(=N)NCC(F)(F)C(F)(F)C(F)(F)F)N=C1c1ccccc1O (centres unmarked) [Example 93, N-(2,2,3,3,4,4,4-Heptafluorobutyl)-3-(2-hydroxyphenyl)-4-methyl-4,5-dihydro-1H-pyrazole-1-carboximidamide]	21%	80%	98%	–
COc1ccccc1C1=NN(C(=N)NCC(F)(F)F)CC1C (centres unmarked) [Example 94, 3-(2-Methoxyphenyl)-4-methyl-N-(2,2,2-trifluoroethyl)-4,5-dihydro-1H-pyrazole-1-carboximidamide]	-12%	17%	77%	–
CC1CN(C(=N)NCC(F)(F)F)N=C1c1ccccc1O (centres unmarked) [Example 95, 3-(2-Hydroxyphenyl)-4-methyl-N-(2,2,2-trifluoroethyl)-4,5-dihydro-1H-pyrazole-1-carboximidamide]	12%	70%	96%	–
COc1ccccc1C1=NN(C(=N)Nc2ccccc2)CC1C (centres unmarked) [Example 96, 3-(2-Methoxyphenyl)-4-methyl-N-phenyl-4,5-dihydro-1H-pyrazole-1-carboximidamide]	19%	43%	93%	–
CC1CN(C(=N)Nc2ccccc2)N=C1c1ccccc1O (centres unmarked) [Example 97, 3-(2-Hydroxyphenyl)-4-methyl-N-phenyl-4,5-dihydro-1H-pyrazole-1-carboximidamide]	62%	99%	105%	–
COc1ccccc1C1=NN(C(=N)Nc2ccc(C(F)(F)F)cc2)CC1C (centres unmarked) [Example 98, 3-(2-Methoxyphenyl)-4-methyl-N-(4-(trifluoromethyl)phenyl)-4,5-dihydro-1H-pyrazole-1-carboximidamide]	5%	41%	86%	–
CC1CN(C(=N)Nc2ccc(C(F)(F)F)cc2)N=C1c1ccccc1O (centres unmarked) [Example 99, 3-(2-Hydroxyphenyl)-4-methyl-N-(4-(trifluoromethyl)phenyl)-4,5-dihydro-1H-pyrazole-1-carboximidamide]	48%	89%	103%	–
COc1ccccc1C1=NN(C(=N)Nc2ccc(F)cc2)CC1C (centres unmarked) [Example 100, N-(4-Fluorophenyl)-3-(2-methoxyphenyl)-4-methyl-4,5-dihydro-1H-pyrazole-1-carboximidamide]	19%	27%	78%	–
CC1CN(C(=N)Nc2ccc(F)cc2)N=C1c1ccccc1O (centres unmarked) [Example 101, N-(4-Fluorophenyl)-3-(2-hydroxyphenyl)-4-methyl-4,5-dihydro-1H-pyrazole-1-carboximidamide]	55%	91%	102%	–
COc1ccccc1C1=NN(C(=N)Nc2ccc(Cl)cc2)CC1C (centres unmarked) [Example 102, N-(4-Chlorophenyl)-3-(2-methoxyphenyl)-4-methyl-4,5-dihydro-1H-pyrazole-1-carboximidamide]	17%	44%	92%	–
